Data as given in US8394858B2, “Cyclohexane derivatives and uses thereof” (Novartis AG, priority 2009, dated 2013).

Target: T1, human acetyl-CoA carboxylase 2 (ACC2) (Homo sapiens, UniProt O00763)
T1 construct: The cDNA encoding amino acids 144 to 2458 of human acetyl-CoA carboxylase 2; made in house; host or cells: Sf9 insect cells (baculovirus, pFastBac1)
Assay: Acetyl-CoA carboxylase enzyme assay (malonyl-CoA formation by LC/MS/MS)
Assay type: biochemical
Details: recombinant human ACC2 (amino acids 144 to 2458), 50 μM acetyl-CoA, 120 μM ATP, 2 mM KHCO3
Excerpt: The cDNA encoding amino acids 144 to 2458 of human acetyl-CoA carboxylase 2 (ACC2, GenBank Accession # NM_001093) was cloned into the SalI and NotI sites of pFastBac1 (Invitrogen; Carlsbad, Calif.). The resulting plasmid was used to generate a recombinant ACC2 baculovirus that was amplified and titered according to the protocols in the Bac-to-Bac baculovirus expression system manual (Invitrogen). The titered virus was used to infect Sf9 cells grown in Ex-Cell 420 serum-free medium (JRH Biosciences; Lenexa, Kans.). At 48 hours post-infection, the cells were harvested and stored at −80° C. until purification. ACC2 was purified using ammonium sulfate precipitation and anion exchange chromatography.
The enzymatic assay was run as follows: 30 μL of reaction buffer (100 mM HEPES pH 7.5, 20 mM MgCl2, 20 mM potassium citrate, 2 mM DTT) was added to a 384-well microtiter plate followed by 2 μL of the test compound (or 100% DMSO control). ACC2 protein (10 μL of a 50 nM working solution) was added to plate, which was incubated at room temperature for 15 minutes. A 30 μL addition of substrate solution (50 μM acetyl-CoA, 120 μM ATP, 2 mM KHCO3) was used to initiate the reactions which were quenched with 6% acetic acid (40 μL). ACC catalyzed malonyl-CoA formation was detected by LC/MS/MS using a Cohesive Technologies LX Series multiplex LC/MS/MS system configured with four binary pumps (Agilent Technologies; Palo Alto, Calif.), a dual arm autosampler (Leap Technologies; Cary, N.C.), and one Quattro Micro triple quadrupole mass spectrometer (Waters, Milford, Mass.), all run by Aria Software version 1.5 (Cohesive Technologies; Franklin, Mass.). Four samples were injected (20 μL) onto four Phenosphere NEXT C18 30×2 mm 5 μm columns (Phenomenex; Torrance, Calif.), eluted by four separate pumps, running identical gradients, through a column switching manifold with the one outlet fitted to the electrospray (ESI) source. Malonyl-CoA was eluted with 5 mM ammonium acetate, pH 4.5 (Buffer A) and 100% acetonitrile (Buffer B) via a step gradient. Argon was used as the collision gas and the following species were monitored via MRM detection: malonyl-CoA (853.8>346.9), internal standard (A: [^13C3]-malonyl-CoA, 857>350). The lower limit of detection is 0.3 uM for malonyl-CoA in this assay.

T1 sequence (O00763 144-2458): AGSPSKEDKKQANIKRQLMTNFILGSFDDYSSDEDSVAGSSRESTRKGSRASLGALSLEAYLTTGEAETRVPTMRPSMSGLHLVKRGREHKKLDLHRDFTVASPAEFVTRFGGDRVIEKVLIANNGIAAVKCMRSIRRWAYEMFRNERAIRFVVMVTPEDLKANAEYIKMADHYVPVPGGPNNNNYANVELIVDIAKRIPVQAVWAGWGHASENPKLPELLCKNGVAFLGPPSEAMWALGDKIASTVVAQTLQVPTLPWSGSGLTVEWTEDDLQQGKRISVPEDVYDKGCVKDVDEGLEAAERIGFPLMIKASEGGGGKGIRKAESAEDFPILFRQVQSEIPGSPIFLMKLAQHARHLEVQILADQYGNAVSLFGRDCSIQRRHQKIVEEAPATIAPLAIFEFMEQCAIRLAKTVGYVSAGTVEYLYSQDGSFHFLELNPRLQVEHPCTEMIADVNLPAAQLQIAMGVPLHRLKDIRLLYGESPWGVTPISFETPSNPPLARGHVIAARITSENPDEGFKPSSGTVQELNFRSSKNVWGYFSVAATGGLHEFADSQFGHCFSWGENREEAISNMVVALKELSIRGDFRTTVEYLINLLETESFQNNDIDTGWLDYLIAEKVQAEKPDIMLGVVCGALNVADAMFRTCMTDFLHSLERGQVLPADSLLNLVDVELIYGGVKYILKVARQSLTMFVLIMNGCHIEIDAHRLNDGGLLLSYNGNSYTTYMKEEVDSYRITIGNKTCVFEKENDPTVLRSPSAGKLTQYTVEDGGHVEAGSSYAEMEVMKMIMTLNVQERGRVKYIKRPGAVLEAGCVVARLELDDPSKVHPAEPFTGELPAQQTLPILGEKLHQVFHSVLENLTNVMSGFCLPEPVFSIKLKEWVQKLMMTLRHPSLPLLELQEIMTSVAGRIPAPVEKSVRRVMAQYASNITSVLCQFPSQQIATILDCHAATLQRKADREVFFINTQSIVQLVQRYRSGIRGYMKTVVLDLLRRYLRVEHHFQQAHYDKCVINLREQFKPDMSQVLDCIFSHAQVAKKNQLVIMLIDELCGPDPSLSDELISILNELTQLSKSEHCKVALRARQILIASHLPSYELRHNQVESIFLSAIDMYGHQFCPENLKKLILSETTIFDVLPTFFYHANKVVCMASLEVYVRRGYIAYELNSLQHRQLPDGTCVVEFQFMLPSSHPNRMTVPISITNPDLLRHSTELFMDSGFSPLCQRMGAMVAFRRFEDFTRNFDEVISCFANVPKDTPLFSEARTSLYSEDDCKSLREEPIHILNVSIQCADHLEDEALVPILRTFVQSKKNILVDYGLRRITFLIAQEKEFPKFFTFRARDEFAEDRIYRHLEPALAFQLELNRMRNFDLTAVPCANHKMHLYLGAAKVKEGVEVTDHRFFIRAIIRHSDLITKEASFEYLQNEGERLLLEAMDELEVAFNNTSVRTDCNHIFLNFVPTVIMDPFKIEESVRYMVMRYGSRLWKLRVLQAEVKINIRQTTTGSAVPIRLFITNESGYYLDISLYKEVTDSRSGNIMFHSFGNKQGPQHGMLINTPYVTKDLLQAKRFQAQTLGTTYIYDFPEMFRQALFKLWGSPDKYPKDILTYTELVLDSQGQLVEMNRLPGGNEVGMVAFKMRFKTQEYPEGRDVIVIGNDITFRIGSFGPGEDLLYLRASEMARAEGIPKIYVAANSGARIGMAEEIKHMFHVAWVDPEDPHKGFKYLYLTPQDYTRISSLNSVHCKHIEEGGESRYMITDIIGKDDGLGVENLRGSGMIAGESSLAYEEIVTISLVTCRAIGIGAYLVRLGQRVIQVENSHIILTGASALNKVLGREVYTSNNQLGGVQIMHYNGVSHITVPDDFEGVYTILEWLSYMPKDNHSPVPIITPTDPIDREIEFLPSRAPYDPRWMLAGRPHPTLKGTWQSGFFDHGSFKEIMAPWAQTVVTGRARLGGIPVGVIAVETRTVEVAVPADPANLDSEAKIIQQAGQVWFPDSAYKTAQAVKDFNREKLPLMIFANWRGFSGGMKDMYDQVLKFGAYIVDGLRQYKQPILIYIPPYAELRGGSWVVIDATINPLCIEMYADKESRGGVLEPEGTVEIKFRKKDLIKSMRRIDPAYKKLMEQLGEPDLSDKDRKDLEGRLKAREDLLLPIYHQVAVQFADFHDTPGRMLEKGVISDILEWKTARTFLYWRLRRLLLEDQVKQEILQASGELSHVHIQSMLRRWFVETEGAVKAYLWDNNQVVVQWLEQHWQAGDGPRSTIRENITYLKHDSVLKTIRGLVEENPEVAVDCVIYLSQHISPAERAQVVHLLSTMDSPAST

SMILES	IC50 [nM]
CC(C)(O)[C@@H](NC(=O)[C@H]1CC[C@H](NS(=O)(=O)c2ccc(C(F)(F)F)cc2)CC1)c1ccccc1 [Example 1, (1r,4S)—N—((S)-2-Hydroxy-2-methyl-1-phenylpropyl)-4-(4-(trifluoromethyl)phenylsulfonamido)cyclohexanecarboxamide]	25
O=C(N[C@@H](c1ccccc1)C(F)(F)F)[C@H]1CC[C@H](NS(=O)(=O)c2ccc(C(F)(F)F)cc2)CC1 [Example 72]	94
C[C@H](O)[C@@H](NC(=O)[C@H]1CC[C@H](NS(=O)(=O)c2ccc(C(F)(F)F)cc2)CC1)c1ccccc1 [Example 171, (1r,4S)—N-((1S,2R)-2-Hydroxy-1-phenylpropyl)-4-(4-(trifluoromethyl)phenylsulfonamido)cyclohexancarboxamide]	90
Cc1[nH]cnc1-c1ccc(S(=O)(=O)N[C@H]2CC[C@H](C(=O)N[C@H](C)c3ccc(F)cc3)CC2)cc1 [Example 339]	25
C[C@@H](NC(=O)[C@H]1CC[C@H](NS(=O)(=O)c2ccc(-c3ccc(CN4CCOCC4)cc3)cc2)CC1)c1ccc(F)cc1 [Example 359]	52
C[C@@H](NC(=O)[C@H]1CC[C@H](NS(=O)(=O)c2ccc(-c3ccc(CNCC(=O)O)cc3)cc2)CC1)c1ccc(F)cc1 [Example 370]	10
C[C@@H](NC(=O)[C@H]1CC[C@H](NS(=O)(=O)c2ccc(-c3ccc(CCN)cc3)cc2)CC1)c1ccc(F)cc1 [Example 378]	10
C[C@@H](NC(=O)[C@H]1CC[C@H](NS(=O)(=O)c2ccc(-c3ccc(OCCN4CCOCC4)cc3)cc2)CC1)c1ccc(F)cc1 [Example 385]	10
CC(C)(O)[C@@H](NC(=O)[C@H]1CC[C@H](NS(=O)(=O)c2ccc(-c3ccccc3)cc2)CC1)c1ccccc1 [Example 395]	10
O=C(O)CCc1ccc(-c2ccc(S(=O)(=O)N[C@H]3CC[C@H](C(=O)N4CCC[C@@H]4c4ccc(F)cc4)CC3)cc2)cc1 [Example 410]	90
O=C(O)CCc1ccc(-c2ccc(S(=O)(=O)N[C@H]3CC[C@H](C(=O)N4CCN(c5ccccn5)CC4c4ccccc4)CC3)cc2)cc1 (some centres unmarked) [Example 414]	10
O=C(O)CCc1ccc(-c2ccc(S(=O)(=O)N[C@H]3CC[C@H](C(=O)N4CCOC[C@@H]4c4ccccc4)CC3)cc2)cc1 [Example 419]	25
O=C1CN(C(=O)[C@H]2CC[C@H](NS(=O)(=O)c3ccc(-c4ccccc4)cc3)CC2)C(c2ccccc2)CN1 (some centres unmarked) [Example 428]	770
CC(C)(O)[C@@H](NC(=O)[C@]1(C)CC[C@@H](NS(=O)(=O)c2ccc(C(F)(F)F)cc2)CC1)c1ccccc1 [Example 448, (1r,4S)—N—((S)-2-Hydroxy-2-methyl-1-phenylpropyl)-1-methyl-4-(4-(trifluoromethyl)phenylsulfonamido)cyclohexanecarboxamide]	40
